# Source: patent publication US7138361B2, “Herbicidal heterocycles” (E. I. du Pont de Nemours and Company, priority 2000, dated 2006)
# What was measured:
# Assay type in all cases: in vivo
# [1] = test system: duck salad (Heteranthera limosa); assay: Test C flooded paddy test; conditions: for Ducksalad plant response rating: scale 0 to 100, 0 no effect, 100 complete control
# Method in brief: (§1)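 Visual ratings (0 = no effect, 100 = complete control) were made 12–14 days after treatment, relative to greenhouse controls. Plants in the flooded paddy test were rice, smallflower flatsedge, duck salad and barnyardgrass, treated at the 2-leaf stage.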
# [2] = test system: rice (Oryza saliva); assay: Test C flooded paddy test; conditions: for Rice plant response rating: scale 0 to 100, 0 no effect, 100 complete control
# Method in brief: as §1
# [3] = test system: barnyardgrass (Echinochloa crus-galli); assay: Test C flooded paddy test; conditions: for Barnyardgrass plant response rating: scale 0 to 100, 0 no effect, 100 complete control
# Method in brief: as §1
# [4] = test system: smallflower flatsedge (Cyperus difformis); assay: Test C flooded paddy test; conditions: for Flatsedge plant response rating: Flooded Paddy, scale 0 to 100, 0 no effect, 100 complete control; for Plant response rating, Flatsedge: flooded paddy test, scale 0 to 100 (0 no effect, 100 complete control)
# Method in brief: as §1
# [5] = test system: lambsquarters (Chenopodium album); assay: Test B postemergence; conditions: 13 to 15 days
# Method in brief: (§2)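 Post-treatment, species sat 13–15 days under greenhouse conditions before visual scoring against controls, 0 (no effect) through 100 (complete control). Application preemergence to sown seeds or postemergence at 1- to 4-leaf stage, using a non-phytotoxic solvent/surfactant formulation.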
# [6] = test system: blackgrass (Alopecurus myosuroides); assay: Test B postemergence; conditions: 13 to 15 days
# Method in brief: as §2
# [7] = test system: velvetleaf (Abutilon theophrasti); assay: Test A preemergence, soil drench; conditions: approx. eleven days
# Method: (§3) Seeds of barnyardgrass (Echinochloa crus-galli), crabgrass (Digitaria spp.), giant foxtail (Setaria viridis), morning glory (Ipomoea spp.), redroot pigweed (Amaranthus retroflexus) and velvetleaf (Abutilon theophrasti) were planted into a sandy loam soil and treated preemergence by soil drench with test chemicals formulated in a non-phytotoxic solvent mixture which included a surfactant. At the same time, these crop and weed species were also treated postemergence sprayed to runoff with test chemicals formulated in the same manner. Plants ranged in height from two to eighteen cm and were in the one- to two-leaf stage for the postemergence treatment. Treated plants and untreated controls were maintained in a greenhouse for approximately eleven days, after which time all treated plants were compared to untreated controls and visually evaluated for injury. Plant response ratings, summarized in Table A, are based on a 0 to 10 scale where 0 is no effect and 10 is complete control. A dash (-) response means no test results.
# [8] = test system: redroot pigweed (Amaranthus retroflexus); assay: Test A preemergence, soil drench; conditions: approx. eleven days
# Method: as §3
# [9] = test system: giant foxtail (Setaria viridis); assay: Test A preemergence, soil drench; conditions: approx. eleven days
# Method: as §3
# [10] = test system: barnyardgrass (Echinochloa crus-galli); assay: Test A preemergence, soil drench; conditions: approx. eleven days
# Method: as §3
# [11] = test system: crabgrass (Digitaria spp.); assay: Test A preemergence, soil drench; conditions: approx. eleven days
# Method: as §3
# [12] = test system: morning glory (Ipomoea spp.); assay: Test A preemergence, soil drench; conditions: Morningglory, approx. eleven days
# Method: as §3
# [13] = test system: duck salad (Heteranthera limosa); assay: Test B flooded paddy test; conditions: Rate 1000 g/ha, scale of 0 to 100 where 0 is no effect and 100 is complete control, visually evaluated after 13 to 15 days
# Method in brief: (§4)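 Greenhouse-held for 13 to 15 days after treatment at the 2-leaf stage, paddy-grown plants were scored visually against controls on a 0-to-100 control scale; a dash marks no test result.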
# [14] = test system: rice (Oryza saliva); assay: Test B flooded paddy test; conditions: Rate 1000 g/ha, scale of 0 to 100 where 0 is no effect and 100 is complete control, visually evaluated after 13 to 15 days
# Method in brief: as §4
# [15] = test system: barnyardgrass (Echinochloa crus-galli); assay: Test B flooded paddy test; conditions: Rate 1000 g/ha, scale of 0 to 100 where 0 is no effect and 100 is complete control, visually evaluated after 13 to 15 days
# Method in brief: as §4
# [16] = test system: smallflower flatsedge (Cyperus difformis); assay: Test B flooded paddy test; conditions: Rate 1000 g/ha, scale of 0 to 100 where 0 is no effect and 100 is complete control, visually evaluated after 13 to 15 days
# Method in brief: as §4
# [17] = test system: Sunflower; assay: Test C preemergence; conditions: Rate 62 g/ha, scale 0 to 100
# [18] = Flooded Paddy, Rate 500 g/ha, scale 0 to 100
# [19] = flooded paddy test, Rate 62 g/ha, scale 0 to 100 (0 no effect, 100 complete control)
# [20] = flooded paddy test, Rate 125 g/ha, scale 0 to 100 (0 no effect, 100 complete control)
# [21] = Rate 125 g/ha, scale 0 (no effect) to 100 (complete control)
# [22] = Rate 500 g/ha, scale 0 to 100, 0 is no effect, 100 is complete control
SMILES,"Plant response rating, Lambsquarters [5, 21]","Plant response rating, Lambsquarters [5, 22]","Plant response rating, Blackgrass [6, 21]","Plant response rating, Blackgrass [6, 22]",Plant response rating (visual injury vs untreated controls) ([7]; Rate 500 g/ha),Plant response rating (visual injury vs untreated controls) ([7]; Rate 2000 g/ha),Plant response rating (visual injury vs untreated controls) ([8]; Rate 500 g/ha),Plant response rating (visual injury vs untreated controls) ([8]; Rate 2000 g/ha),Plant response rating (visual injury vs untreated controls) ([9]; Rate 500 g/ha),Plant response rating (visual injury vs untreated controls) ([9]; Rate 2000 g/ha),Plant response rating (visual injury vs untreated controls) ([10]; Rate 500 g/ha),Plant response rating (visual injury vs untreated controls) ([10]; Rate 2000 g/ha),Plant response rating (visual injury vs untreated controls) ([11]; Rate 500 g/ha),Plant response rating (visual injury vs untreated controls) ([11]; Rate 2000 g/ha),Plant response rating (visual injury vs untreated controls) ([12]; Rate 500 g/ha),Plant response rating (visual injury vs untreated controls) ([12]; Rate 2000 g/ha),"Plant response rating, Ducksalad [13]","Plant response rating, Rice [14]","Plant response rating, Barnyardgrass [15]","Plant response rating, Flatsedge [16]",also measured
CC(C)(C)c1ccn(C2SCN(c3cccc(C(F)(F)F)c3)C2=O)n1 (centres unmarked) [Compound 1],90,100,0,0,10,70,100,100,90,100,90,100,90,100,10,80,–,–,–,–,"Plant response rating, Ducksalad [1, 18]: 100; Ducksalad plant response rating ([1]; Flooded Paddy, Rate 250 g/ha): 90; Plant response rating, Ducksalad [1, 19]: 60; Plant response rating, Ducksalad [1, 20]: 90; Plant response rating, Rice [2, 18]: 50; Rice plant response rating ([2]; Flooded Paddy, Rate 250 g/ha): 0; Plant response rating, Rice [2, 19]: 0; Plant response rating, Rice [2, 20]: 0; Plant response rating, Barnyardgrass [3, 18]: 100; Barnyardgrass plant response rating ([3]; Flooded Paddy, Rate 250 g/ha): 30; Plant response rating, Barnyardgrass [3, 19]: 20; Plant response rating, Barnyardgrass [3, 20]: 80; Flatsedge plant response rating ([4]; Rate 250 g/ha): 100; Flatsedge plant response rating ([4]; Rate 500 g/ha): 100; Plant response rating, Flatsedge ([4]; Rate 62 g/ha): 90; Plant response rating, Flatsedge ([4]; Rate 125 g/ha): 100"
O=C1C(n2cc(Cl)c(C3CC3)n2)CCN1c1cccc(C(F)(F)F)c1 (centres unmarked) [Compound 12],0,0,0,0,0,0,0,40,0,30,0,0,0,60,0,0,0,0,0,30,–
CCC(C)c1nn(C2CCN(c3cccc(C(F)(F)F)c3)C2=O)cc1Cl (centres unmarked) [Compound 13],0,0,0,0,0,0,80,100,20,90,0,10,0,80,0,20,0,0,0,0,–
CC(C)(C)c1nn(C2CCN(c3cccc(C(F)(F)F)c3)C2=O)cc1Cl (centres unmarked) [Compound 14],0,0,0,0,0,0,40,70,0,0,0,0,0,0,0,0,0,0,0,0,–
CC(C)(C)c1ccn(C2CCN(c3cccc(I)c3)C2=O)n1 (centres unmarked) [Compound 88],100,100,0,0,0,30,100,100,70,100,40,100,80,100,0,30,–,–,–,–,"Ducksalad plant response rating ([1]; Flooded Paddy, Rate 250 g/ha): 60; Ducksalad plant response rating ([1]; Flooded Paddy, Rate 500 g/ha): 60; Plant response rating, Ducksalad [1, 19]: 0; Plant response rating, Ducksalad [1, 20]: 10; Rice plant response rating ([2]; Flooded Paddy, Rate 250 g/ha): 30; Rice plant response rating ([2]; Flooded Paddy, Rate 500 g/ha): 70; Plant response rating, Rice [2, 19]: 0; Plant response rating, Rice [2, 20]: 20; Barnyardgrass plant response rating ([3]; Flooded Paddy, Rate 250 g/ha): 100; Barnyardgrass plant response rating ([3]; Flooded Paddy, Rate 500 g/ha): 100; Plant response rating, Barnyardgrass [3, 19]: 30; Plant response rating, Barnyardgrass [3, 20]: 100; Flatsedge plant response rating ([4]; Rate 250 g/ha): 100; Flatsedge plant response rating ([4]; Rate 500 g/ha): 100; Plant response rating, Flatsedge ([4]; Rate 62 g/ha): 90; Plant response rating, Flatsedge ([4]; Rate 125 g/ha): 90; Plant response rating, Sunflower [17]: 10"
